pKi: −log10 of the molar value.
These compounds were tested against T1, human CRF receptors (Homo sapiens, UniProt P34998) (assay: radioligand binding assay, displacement of [125I]tyrosine-ovine CRF from CRF receptor (stably transfected cells)). Settings: [125I]tyrosine-ovine CRF ~200 pM; cells stably transfected with human CRF receptors; 2 hours at 22° C.
T1 construct: expressed in transfected cells
T1 sequence (P34998 24-415): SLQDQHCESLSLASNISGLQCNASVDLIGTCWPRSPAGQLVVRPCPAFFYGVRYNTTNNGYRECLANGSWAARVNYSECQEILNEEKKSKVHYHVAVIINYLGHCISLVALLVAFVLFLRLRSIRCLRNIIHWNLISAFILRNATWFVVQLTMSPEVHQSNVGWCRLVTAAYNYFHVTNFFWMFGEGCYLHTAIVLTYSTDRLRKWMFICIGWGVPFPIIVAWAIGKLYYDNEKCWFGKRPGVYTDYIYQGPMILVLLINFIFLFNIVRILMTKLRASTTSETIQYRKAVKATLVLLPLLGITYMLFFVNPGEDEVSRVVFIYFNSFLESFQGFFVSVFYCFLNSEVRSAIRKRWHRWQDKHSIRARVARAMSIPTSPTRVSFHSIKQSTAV
Source text: The effectiveness of a compound as a CRF receptor antagonist may be determined by various assay methods. […] CRF receptor affinity may be determined by binding studies that measure the ability of a compound to inhibit the binding of a radiolabeled CRF (e.g. [^125 I]tyrosine CFR) to receptor (e.g., receptors prepared from rat cerebral cortex membranes). The radioligand binding assay described by DeSouza et al. (supra, 1987) provides an assay for determining a compound's affinity for the CRF receptor.
where L=radioligand and KD =affinity of radioligand for receptor (Cheng and Prusoff, Biochem. Pharmacol. 22:3099, 1973).
By utilizing various radiolabeled CRF ligands, the assay may be used to evaluate the binding activity of the compounds of the present invention with any CRF receptor subtype. Briefly, the binding assay involves the displacement of a radiolabeled CRF ligand from the CRF receptor.
More specifically, the binding assay was performed in 1.5 ml Eppendorf tubes using approximately 1×10^6 cells per tube stably transfected with human CRF receptors. Each tube received about 0.1 ml of assay buffer (e.g., Dulbecco's phosphate buffered saline, 10 mM magnesium chloride, 20 μM bacitracin) with or without unlabeled sauvagine, urotensin I or CRF (final concentration, […]) to determine nonspecific binding, 0.1 ml of [^125 I] tyrosine--ovine CRF (final concentration ~200 pM or approximately the KD as determined by Scatchard analysis) and 0.1 ml of a membrane suspension of cells containing the CRF receptor. The mixture was incubated for 2 hours at 22° C. followed by the separation of the bound and free radioligand by centrifugation. Following two washes of the pellets, the tubes were cut just above the pellet and monitored in a gamma counter for radioactivity at approximately 80% efficiency. All radioligand binding data was analyzed using a non-linear least-square curve-fitting program. Binding activity corresponds to the concentration (nM) of the compound necessary to displace 50% of the radiolabeled ligand from the receptor.

Row | Structure (SMILES) | pKi
1 | CCCN(CC1CC1)c1nc(C)nc(Cc2c(OC)cc(OC)cc2OC)c1C [Compound 20, 2,6-dimethyl-4-(N-propyl-N-cyclopropylmethylamino)-6-(2',4',6'-trimethyloxyphenylmeth-1'-yl)-pyrimidine] | ≥ 6.60
2 | C=CCN(CC=C)c1nc(C)nc(C(=O)c2c(C)cc(C)cc2C)c1C [Compound 14] | ≥ 6.60
3 | CCCN(CC1CC1)c1nc(C)nc(C(=O)c2c(C)cc(C)cc2C)c1C [Compound 5] | ≥ 6.60
4 | CCCN(CC1CC1)c1nc(C)nc(C(=O)c2c(CC)cc(CC)cc2CC)c1C [Compound 8] | ≥ 6.60
5 | CCCN(CC1CC1)c1nc(C)nc(C(=O)c2c(OC)cc(OC)cc2OC)c1C [Compound 2] | ≥ 6.60
6 | CCCN(CCC)c1nc(C)nc(C(=O)c2c(C)cc(C)cc2C)c1C [Compound 13] | ≥ 6.60

Same assay, conditions: result in words, same radioligand binding assay

Row | Structure (SMILES) | score in CRF receptor binding test (ranking among compounds)
7 | CCCN(CC1CC1)c1nc(C)nc(C(=O)c2c(CC)cc(CC)cc2CC)c1C [Compound 8] | best score

Reference: patent US6288060A, “Amino substituted pyrimidines and triazines” (Neurocrine Biosciences, Inc., priority 1998, dated 2001)
